Source: patent US7339061B2, “3-(4-oxo-4H-chromen-2-yl)-(1H)-quinolin-4-one derivatives, method for preparing same and pharmaceutical compositions containing same” (Les Laboratoires Servier, priority 2002, dated 2008)
Each block holds one compound with its values, some of them ahead of it.

Tests used:
[1] = tested on: prostate cancer line (LN CaP); experiment: Apoptotic effect, TUNEL test; type: cell-based; settings: LN CaP cells incubated at the IC50 concentration, 8 to 96 hours; early = 8 hours
Description: Study of the pro-apoptotic effects of compounds of the invention is carried out on a prostate cancer line (LN CaP). The cells were incubated for periods ranging from 8 to 96 hours at the IC50 concentration.
The TUNEL test was then carried out according to the method described by Sgonc in Trends Genetics—1994; 10:41.

[2] = tested on: Eleven cell lines from cancers of different origins and sites (lung, breast, prostate, colon, blood, bladder, skin, ovary, brain); experiment: In vitro cytotoxicity, MTT test, 96 hours incubation; type: cell-based; settings: lines to which the stated IC50 range applies
Description: Eleven cell lines from cancers of different origins and sites (lung, breast, prostate, colon, blood, bladder, skin, ovary, brain) are cultured in order to study the various compounds in comparison to the reference substance.
The cells are incubated for 96 hours with various concentrations of compounds of the invention.
The in vitro cytotoxic activity is determined by the MTT [3-(4,5-dimethylthiazol-2-yl)-2,5-diphenyltetrazolium bromide] test as described by Carmichael in Cancer Res.—1987; 47 (4): 936-942.
The activity is expressed in terms of the IC50, that is to say the concentration which inhibits proliferation of the tumour cells by 50%.

breast cancer cells = experiment: In vitro synergistic effect with anti-cancer agent (MTT test, Chou and Talabay analysis), breast cancer cells; type: cell-based; settings: 96 hours, five concentrations of compound and of anti-cancer agent; method names tamoxifen (TXL) on breast cancer cells
Description: (§1) Three cell lines which are sensitive to three anti-cancer agents are used: breast cancer cells in association with treatment with tamoxifen (TXL), lung cancer cells in association with treatment with cisplatin (CDDP), and colon cancer cells in association with treatment with SN38, a metabolite of CPT-11 (irinotecan).
(§2) The tumour cells are incubated for 96 hours together with five different concentrations of each of the compounds of the invention and five concentrations of each of the anti-cancer agents in association.
(§3) The in vitro cytotoxic activity is determined by the MTT test described in Example 24. Analysis of the data is carried out according to the method of Chou and Talabay, published in Trends Pharmaceutical Sci.—1983; 4:450.

lung cancer cells = experiment: In vitro synergistic effect with anti-cancer agent (MTT test, Chou and Talabay analysis), lung cancer cells; type: cell-based; settings: 96 hours, five concentrations of compound and of cisplatin (CDDP)
Description: as §1, §2, §3

melting point: 295 to 300 °C
SMILES: O=c1cc(-c2cn(-c3ccccc3)c3ccccc3c2=O)oc2cc(O)ccc12 [Example 2, 3-(7-Hydroxy-4-oxo-4H-1-benzopyran-2-yl)-1-phenyl-1H-quinolin-4-one]

melting point: > 300 °C
SMILES: O=c1c(-c2cc(=O)c3c(O)cccc3o2)cn(-c2ccccc2)c2ccccc12 [Example 6, 3-(5-Hydroxy-4-oxo-4H-1-benzopyran-2-yl)-1-phenyl-1H-quinolin-4-one]
apoptosis (TUNEL test) [1]: very high apoptosis

melting point: 295 to 296 °C
SMILES: COc1cc(O)c2c(=O)cc(-c3cn(-c4ccccc4)c4ccccc4c3=O)oc2c1 [Example 7, 3-(5-Hydroxy-7-methoxy-4-oxo-4H-1-benzopyran-2-yl)-1-phenyl-1H-quinolin-4-one]

Further lines, the compound ahead of its results:

SMILES: O=c1cc(-c2cn(-c3ccccc3)c3ccccc3c2=O)oc2ccccc12 [Example 8, 3-(4-Oxo-4H-1-benzopyran-2-yl)-1-phenyl-1H-quinolin-4-one]
melting point: 327 to 328 °C

SMILES: COc1cc(OC)c2c(=O)cc(-c3cn(-c4ccccc4)c4ccccc4c3=O)oc2c1C1=CCN(C)CC1 [Example 9, 3-[5,7-Dimethoxy-8-(1-methyl-1,2,5,6-tetrahydropyridin-4-yl)-4-oxo-4H-1-benzopyran-2-yl]-1-phenyl-1H-1,4-dihydroquinolin-4-one]
number of the 11 lines tested with respect to which the compound has cytotoxic activity [2]: 8 of the 11

SMILES: CN1CC=C(c2c(O)cc(O)c3c(=O)cc(-c4cn(-c5ccccc5)c5ccccc5c4=O)oc23)CC1 [Example 14, 3-[5,7-Dihydroxy-8-(1-methyl-1,2,5,6-tetrahydropyridin-4-yl)4-oxo-4H-1-benzopyran-2-yl]-1-phenyl-1H-1,4-dihydroquinolin-4-one]
number of the 11 lines tested with respect to which the compound has cytotoxic activity [2]: 5 of the 11
synergistic effect with paclitaxel (breast cancer cells): synergistic effect
synergistic effect with cisplatin (lung cancer cells): synergistic effect

SMILES: O=c1c(-c2cc(=O)c3c(O)cc(O)c(C4=CCN(Cc5ccccc5)CC4)c3o2)cn(-c2ccccc2)c2ccccc12 [Example 16, 3-[5,7-Dihydroxy-8-(1-benzyl-1,2,5,6-tetrahydropyridin-4-yl)-4-oxo-4H-1-benzopyran-2-yl]-1-phenyl-1H-1,4-dihydroquinolin-4-one]
synergistic effect with paclitaxel (breast cancer cells): synergistic effect
synergistic effect with cisplatin (lung cancer cells): synergistic effect
